We go through four compounds from patent US10485881B2, “Nanoparticle drug conjugates” (Memorial Sloan Kettering Cancer Center, priority 2014, dated 2019).

One data set concerns the target cathepsin B (Homo sapiens, UniProt P07858). The data set is described as follows: Drug release assay with cathepsin B. The class given is biochemical. The note with it: free linker-drug constructs; for Hydrolysis / drug release in the presence of cathepsin B: monitored by HPLC or LCMS; for half-life at 25 μM: HPLC at 348 nm, sodium acetate buffer pH 5.0, NH = no hydrolysis, read-out: Cathepsin B t1/2 (time when 50% of the drug is released from linker). On the procedure: Drug Release Assays with Cathepsin B:
For analysis, 70 μL portions were removed and quenched with acid (HCl) at specified time points (e.g., 5, 15, 30, 60, 120 minutes or longer) then run on HPLC/LCMS. NDCs were stored in water at 4° C. […] Enzyme activity was tested prior to drug release assay using the substrate Z-Arg-Arg-para-nitro-aniline. The % Free Drug (FIGS. 4A, 4B, 6A and 6B) is the quantity of free drug divided by the initial quantity of drug loaded for the linker-drug construct or NDC, as described in the previous paragraph. All buffers and solutions were prepared using ultra-pure water (18 MΩ-cm resistivity).

For a further data set, the target named is T1, trypsin (Bos taurus, UniProt P00760).
T1 construct: purchased Sigma-Aldrich
T1 sequence (P00760 24-246): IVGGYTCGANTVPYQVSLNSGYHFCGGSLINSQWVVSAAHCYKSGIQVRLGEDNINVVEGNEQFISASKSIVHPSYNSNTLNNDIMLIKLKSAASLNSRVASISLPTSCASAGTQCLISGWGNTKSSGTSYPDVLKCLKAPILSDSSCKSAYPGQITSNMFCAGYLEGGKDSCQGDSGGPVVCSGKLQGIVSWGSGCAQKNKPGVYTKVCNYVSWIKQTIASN
The data set is described as follows: Drug release assay with trypsin. Particulars: for half-life at 25 μM: bovine, pH 7.2, free linker-drug constructs, HPLC at 348 nm, 37° C., phosphate buffer pH 7.2, read-out: Trypsin t1/2 (time when 50% of the drug is released from linker); for Time to complete hydrolysis / complete release of drug with trypsin: free linker-drug constructs, monitored by HPLC or LCMS. The class given is biochemical, bovine. On the procedure: Drug Release Assays with Trypsin:
For analysis, 70 μL portions were removed and quenched with acid (HCl) at specified time points (e.g., 5, 15, 30, 60, 120 minutes or longer) then run on HPLC/LCMS. NDCs were stored in water at 4° C. Trypsin stocks were prepared as follows: 1 mg of trypsin was dissolved in 1 mL water, aliquoted, then immediately flash frozen and stored at −80° C. for up to four weeks. Enzyme activity was tested prior to drug release assay using the substrate Z-Arg-Arg-para-nitro-aniline. The % Free Drug (FIGS. 3 and S3) is the quantity of free drug divided by the initial quantity of drug loaded for the linker-drug construct or NDC. The quantity of free drug is determined by area of the HPLC peak corresponding to the released drug at 348 nm. The quantity of drug loaded is the area of the HPLC peak, at 348 nm, for the linker-drug construct or NDC prior to enzyme treatment. As the C'dot-(Cy5)-PEG-mal has background absorbance at 348 nm, a background subtraction for the NDC is necessary. All buffers and solutions were prepared using ultra-pure water (18 Me-cm resistivity).

For data set [1], the target named is EGFR (phospho-Tyr168) in H1650 cells (Homo sapiens, UniProt P00533, DEL746-750). The data set is described as follows: PhosphoEGFR assay with H1650 cells (western blot). Particulars: 1 and 10 μM, compared with gefitinib. Background: A western blot detects proteins with antibodies after separation by electrophoresis.
Experimental: Serum starved cells were incubated with each compound over a period of 18 hours, then subject to EGF stimulation.
PhosphoEGFR Assay with H1650 Cells:
H1650 cells were seeded (1.5 million cells) in 6-well plates with 2 ml of 10% FBS DEM medium and grown for 24 hrs. Cells were washed with 1 mL of serum free DEM medium, then incubated with gefitinib or NDCs at indicated concentrations overnight (18 hrs). Cells were then treated with 50 ng/mL EGF for 5 minutes, then washed with 1 mL of PBS. […] 1 mL of 10% FBS DEM medium was added to wells, and cells were transferred to 15 mL conical tubes containing 10 mL of 10% FBS DEM medium. Cells were spun down at 3000 rpm for 5 minutes at 4° C. The cell pellets were washed with 1 mL cold PBS, transferred to 1.5 mL tubes, and spun down. PBS was decanted and 70 μL of RIPA (containing protease and phosphatase inhibitors) was added to the pellet, titurated, and incubated for 10 minutes on ice. Tubes were spun at maximum speed for 10 minutes at 4° C. Lysate was transferred to new 1.5 ml tubes and stored at −80° C. Protein concentrations were determined by the Bradford assay. Western blots were run on a Life Technologies apparatus, using Novex 8% tris-glycine gels (1.5 mm×15 wells), tris-glycine SDS running buffer, NuPAGE transfer buffer, 0.1% Tween-20 in 1×TBS washing buffer, and 5% milk in the washing buffer as the blocking buffer. […]

“Also recorded” adds a separate entry of the source. Like-named read-outs stand apart in the source and are kept apart here.

As to `COc1cc2ncnc(Nc3ccc(F)c(Cl)c3)c2cc1OCCCNC(=O)[C@H](CCCNC(=N)N)NC(=O)[C@H](Cc1ccccc1)NC(=O)CCOCCOCCNC(=O)CCOCCOCCNC(=O)CCOCCOCCNC(=O)CS` [Phe-Arg-APdMG (3), Mercaptoacetamido-(dPEG2)3-Phe-Arg-APdMG], at cathepsin B, the “Hydrolysis / drug release in the presence of cathepsin B” value was “no hydrolysis was observed; also recorded: no drug release was observed”. Further, on trypsin, the half-life at 25 μM stood at 9 min and the “Time to complete hydrolysis / complete release of drug with trypsin” value is reported as ≤ 60 min.
Take `COc1cc2ncnc(Nc3ccc(F)c(Cl)c3)c2cc1OCCCNC(=O)OCc1ccc(NC(=O)[C@H](CCCCN)NC(=O)[C@H](Cc2ccccc2)NC(=O)CCOCCOCCOCCOCCOCCOCCOCCOCCS)cc1` [Phe-Lys-PABC-APdMG (5), HS-dPEG8-Phe-Lys-PABC-aminopropyl-dMG]: the half-life at 25 μM on cathepsin B (cathepsin B (isolated enzyme)) and on trypsin was < 1 min in each case. Further, on trypsin, the “Time to complete hydrolysis / complete release of drug with trypsin” value came to 10 min.
For `COc1cc2ncnc(Nc3ccc(F)c(Cl)c3)c2cc1OCCCNC(=O)CCOCCOCCNC(=O)[C@H](CCCNC(=N)N)NC(=O)[C@H](Cc1ccccc1)NC(=O)CCOCCOCCNC(=O)CCOCCOCCNC(=O)CCOCCOCCNC(=O)CS` [Phe-Arg-dPEG2APdMG (4), Mercaptoacetamido-(dPEG2)3-Phe-Arg-dPEG2APdMG], at cathepsin B, the half-life at 25 μM turned out to be 110 min and the “Hydrolysis / drug release in the presence of cathepsin B” value is “completely hydrolyzed”. At trypsin, the half-life at 25 μM was ≤ 2 min and the “Time to complete hydrolysis / complete release of drug with trypsin” value is on record as 10 min.
In the case of “Amino-dPEG2-aminopropyl-dMG [dPEG2APdMG 2]”, the “Inhibition of phospho-Tyr168 in EGFR” value in data set [1] is recorded as “reduced activity”.
